Data taken from article PMC10255231, “Cytotoxic, Anti-Hemolytic, and Antioxidant Activities of Ruta chalepensis L. (Rutaceae) Extract, Fractions, and Isolated Compounds” (Plants, 2023).
≈ marks a conversion by molar mass, not a printed value.

Assays:
human red blood cells [1] = experiment: Hemolytic activity test; type: cell-based; settings: human erythrocytes, PBS pH 7.4; for IC50: Erythrocyte
Method: The hemolytic activity was assessed using the hemolysis test at treatment concentrations ranged from 7.81 µg/mL to 1000 µg/mL in PBS at pH 7.4. IC50 values were defined as the sample concentration needed to cause 50% hemolysis of human red blood cells. The percentage of hemolysis was determined by measuring ODs at 540 nm as follows (4):(4) Hemolysis %=OD540nm Treatment/OD540nm Positive control×100

PBMC = experiment: MTT cell viability assay, normal PBMC; type: cell-based; settings: Homo sapiens, 72 h, normal cells
Text: (§1) The human hepatocellular carcinoma cell line HEP-G2 (ATCC HB-8065) and the monkey kidney epithelial cell line VERO (ATCC CCL-81) were obtained from the Laboratory of Immunology and Virology in FCB at UANL (FCB-UANL), México, and cultured in DMEM, supplemented with 10% heat-inactivated FBS, 2% NaHCO3, and HEPES [57]. Murine lymphoma L5178Y-R cells (ATCC CRL-1722) and human peripheral blood mononuclear cells (PBMC) were maintained in RPMI-1640 culture medium, supplemented with 10% heat-inactivated FBS and 1% antibiotic/antimycotic solution [26]. Assays were conducted with adherent HEP-G2 and VERO cells on flat-bottom microplates and non-adherent L5178Y-R and PBMC cells were evaluated on round-bottom microplates.
(§2) Cells were cultured at 37 °C and 5% CO2 in 95% air in a humidified incubator, in the presence or absence of treatments for 72 h. After which they were incubated with MTT (0.5 mg/mL final concentration) at 37 °C in 5% CO2 for 3 h and supernatants were discarded after the incubation period. Resulting formazan crystals were dissolved in DMSO, and optical densities (OD) were measured at 540 nm, using a microplate reader (Molecular Devices Corporation in Palo Alto, CA). In addition, […] (IC50) values were determined after 72 h incubation with treatments at concentrations ranging from 7.81 µg/mL to 1000 µg/mL and ODs were measured at 570 nm on a microplate reader (Molecular Devices Corporation). The positive control consisted of 0.05 µg/mL VS and the negative control was culture medium alone. All treatments were diluted in DMSO to a final well test concentration not exceeding 0.5% (v/v). Cell viability was determined using the following Formula (2):(2) Cell viability %=OD570nmTreatment/OD570nmNegative control×100

VERO cells = experiment: MTT cell viability assay, normal VERO cells; type: cell-based, African green monkey; settings: Chlorocebus sabaeus, 72 h
Text: as §1, §2

HEP-G2 cells = experiment: MTT cell viability assay, HEP-G2 tumor cells; type: cell-based; settings: Homo sapiens, HepG2, 72 h
Text: as §1, §2
To determine the selectivity index (SI) for each treatment, we divided the IC50 of […]. SI was assessed for adherent cells (non-tumor/tumor) and for non-adherent cells (non-tumor/tumor). […] SI was calculated using the following Formula (3):(3) SI=IC50 Normal Cells/IC50 Tumor Cells

L5178Y-R cells = experiment: MTT cell viability assay, L5178Y-R lymphoma cells; type: cell-based, murine; settings: Mus musculus, 72 h, tumor cells
Text: as §1
Cells were cultured at 37 °C and 5% CO2 in 95% air in a humidified incubator, in the presence or absence of treatments for 72 h. […] Resulting formazan crystals were dissolved in DMSO, and optical densities (OD) were measured at 540 nm, using a microplate reader (Molecular Devices Corporation in Palo Alto, CA). […] Cell viability was determined using the following Formula (2):(2) Cell viability %=OD570nmTreatment/OD570nmNegative control×100
To determine the selectivity index (SI) for each treatment, we divided the IC50 of […]. SI was assessed for adherent cells (non-tumor/tumor) and for non-adherent cells (non-tumor/tumor). […]

human red blood cells [2] = experiment: Anti-hemolytic activity test (AAPH inhibition); type: cell-based; settings: human erythrocytes, AAPH 150 mM, PBS pH 7.4
Method: The AAPH inhibition test was used to determine the anti-hemolytic activity, as previously reported. Hemolysis was induced by the AAPH radical (150 mM in PBS) as a positive control. Treatment concentrations ranged from 7.81 µg/mL to 1000 µg/mL in PBS at pH 7.4 plus AAPH. IC50 values were defined as the sample concentration needed to cause 50% hemolysis of human red blood cells. The anti-hemolytic activity was evaluated using the following Formula (5):(5) % Anti−hemolytic Activity=1−OD570nm Treatment/OD570nm Positive control×100

| IC50 (HEP-G2 cells) [µg/mL] | IC50 (L5178Y-R cells) [µg/mL] | SMILES | IC50 (human red blood cells [1]) [µg/mL] | IC50 (PBMC) [µg/mL] | IC50 (VERO cells) [µg/mL] | Anti-Hemolytic Activity IC50 (human red blood cells [2]) | Hemolytic Activity IC50 (human red blood cells [1]) | IC50 (human red blood cells [2]; Erythrocyte) [µg/mL] |
| --- | --- | --- | --- | --- | --- | --- | --- | --- |
| 54.6 ± 3.34 (≈ 196 µM) | < 50 | Cn1c(-c2ccc3c(c2)OCO3)cc(=O)c2ccccc21 [GRV, Graveoline] | 57.6 ± 11.3 (≈ 206 µM) | 159 ± 30.6 (≈ 569 µM) | 179 ± 7.39 (≈ 640 µM) | did not exhibit any anti-hemolytic activity | – | – |
| 76.2 ± 2.85 (≈ 300 µM) | – | C=CC(C)(C)c1cc2cc3ccoc3cc2oc1=O [CHL, Chalepensin] | 101 ± 4.2 (≈ 397 µM) | 226 ± 5.67 (≈ 891 µM) | 387 ± 9.24 (≈ 1520 µM) | – | did not show significant hemolytic activity | 180 ± 4.76 (≈ 707 µM) |
| 130 ± 3.68 (≈ 364 µM) | – | C=CC(C)(C)c1cc2cc3c(cc2oc1=O)OC(C(C)(C)OC(C)=O)C3 (stereo not drawn) [RTM, Rutamarin] | > 1500 | 151 ± 10.1 (≈ 424 µM) | 430 ± 4.07 (≈ 1210 µM) | did not exhibit any anti-hemolytic activity | did not show significant hemolytic activity | – |
